Experimental data published in US10065990B2, “Cyclic peptide compound, and preparation method, pharmaceutical composition and use thereof” (HANGZHOU GUANYU BIO-MEDICAL CO., LTD, priority 2013, dated 2018).

Columns and labels:
HDAC2 = HDAC2 (Homo sapiens, UniProt Q92769); assay: HDAC biochemical activity measurement (fluorescent substrate deacetylation);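 note: HDAC2 enzyme with an acetyl-lysine fluorescent substrate, then developer added, fluorescence read at excitation 360 nm and emission 460 nm, inhibition measured across several compound concentrations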; conditions: 37° C. 30 minutes
Chain of HDAC2 (Q92769 whole entry, species assumed): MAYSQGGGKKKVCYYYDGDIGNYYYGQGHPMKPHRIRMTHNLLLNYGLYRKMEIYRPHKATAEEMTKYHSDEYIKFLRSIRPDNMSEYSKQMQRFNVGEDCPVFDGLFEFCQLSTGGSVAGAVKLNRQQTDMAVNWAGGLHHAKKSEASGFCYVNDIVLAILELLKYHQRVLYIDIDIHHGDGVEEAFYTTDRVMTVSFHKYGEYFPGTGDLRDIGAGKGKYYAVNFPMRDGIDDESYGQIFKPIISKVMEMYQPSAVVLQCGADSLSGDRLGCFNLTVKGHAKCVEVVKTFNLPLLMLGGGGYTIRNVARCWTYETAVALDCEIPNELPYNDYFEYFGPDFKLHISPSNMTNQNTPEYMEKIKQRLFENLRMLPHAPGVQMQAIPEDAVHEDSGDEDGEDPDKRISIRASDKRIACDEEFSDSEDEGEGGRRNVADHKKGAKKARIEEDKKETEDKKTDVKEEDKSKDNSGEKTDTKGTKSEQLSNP

HDAC7 = target: T1, HDAC7 (Homo sapiens, UniProt Q8WUI4); assay: as above; conditions: HDAC7; 37° C. 30 minutes;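 note: fluorogenic deacetylation assay using acetyl-lysine substrate at 20 µM, enzyme and compound incubated 30 min at 37 °C, then developer added, fluorescence read at 360/460 nm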
T1 sequence (Q8WUI4 1-952): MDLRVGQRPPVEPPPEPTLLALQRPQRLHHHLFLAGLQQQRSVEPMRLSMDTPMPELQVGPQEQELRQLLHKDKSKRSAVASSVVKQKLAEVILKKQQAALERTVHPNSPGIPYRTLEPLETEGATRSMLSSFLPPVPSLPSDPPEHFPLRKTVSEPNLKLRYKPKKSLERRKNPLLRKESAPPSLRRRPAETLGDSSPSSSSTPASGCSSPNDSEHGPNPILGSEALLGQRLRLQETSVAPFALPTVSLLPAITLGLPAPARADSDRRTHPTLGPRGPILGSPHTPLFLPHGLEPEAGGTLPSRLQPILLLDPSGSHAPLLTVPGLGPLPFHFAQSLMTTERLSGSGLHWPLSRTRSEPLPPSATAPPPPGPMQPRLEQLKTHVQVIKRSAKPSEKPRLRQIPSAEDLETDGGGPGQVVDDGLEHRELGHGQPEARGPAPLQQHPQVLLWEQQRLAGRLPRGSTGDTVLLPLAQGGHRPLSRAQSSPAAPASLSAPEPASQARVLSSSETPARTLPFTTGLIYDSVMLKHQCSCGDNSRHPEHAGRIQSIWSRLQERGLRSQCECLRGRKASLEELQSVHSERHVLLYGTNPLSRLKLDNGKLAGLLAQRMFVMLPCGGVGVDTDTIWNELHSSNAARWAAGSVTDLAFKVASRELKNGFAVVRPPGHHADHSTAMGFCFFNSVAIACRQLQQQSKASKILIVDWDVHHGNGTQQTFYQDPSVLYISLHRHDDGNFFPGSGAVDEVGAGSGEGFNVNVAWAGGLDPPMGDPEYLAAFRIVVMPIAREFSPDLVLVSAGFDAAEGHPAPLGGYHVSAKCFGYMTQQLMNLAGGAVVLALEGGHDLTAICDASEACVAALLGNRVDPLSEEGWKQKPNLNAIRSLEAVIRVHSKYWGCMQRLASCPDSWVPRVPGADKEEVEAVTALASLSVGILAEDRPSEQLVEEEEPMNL

HDAC11 = target: T2, HDAC11 (Homo sapiens, UniProt Q96DB2); assay: as above; conditions: read-out: IC50 HDAC11; HDAC11; 37° C. 30 minutes;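 note: HDAC11 enzyme acting on an acetyl-lysine fluorogenic substrate, then a developer frees the fluorophore, read at excitation 360 nm and emission 460 nm, IC50 over a compound dilution series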
T2 sequence (Q96DB2 1-347): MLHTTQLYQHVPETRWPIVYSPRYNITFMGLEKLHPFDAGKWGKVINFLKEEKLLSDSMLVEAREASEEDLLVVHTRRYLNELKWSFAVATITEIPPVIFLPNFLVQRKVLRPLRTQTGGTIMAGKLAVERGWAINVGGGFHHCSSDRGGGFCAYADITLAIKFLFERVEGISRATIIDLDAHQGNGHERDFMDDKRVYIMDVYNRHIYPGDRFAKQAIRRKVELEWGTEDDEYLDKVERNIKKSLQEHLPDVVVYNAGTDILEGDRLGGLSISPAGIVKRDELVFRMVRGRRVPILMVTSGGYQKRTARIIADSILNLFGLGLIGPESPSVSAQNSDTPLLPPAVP

[1] = system: MDA-MB-231 (breast cancer cells); assay: MTT cancer cell growth inhibition; assay type: cell-based; conditions: Homo sapiens, MDA-MB-231, 72 h, read-out: GI50 MDA-MB-231, MTT, 72 hours incubation, MDA-MB-231 cells
In short: (§1)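 Cells seeded at 1500/well in DMEM or RPMI 1640 with 10% FBS, incubated overnight, then exposed to compound at 10^−5 to 10^−10 M final in triplicate for 72 h at 37° C, 5% CO2. MTT added for 4 h, formazan dissolved in DMSO, absorbance read at 570 nm; GI50 derived from viability.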

[2] = system: K562 (human leukemia cells); assay: MTT cancer cell growth inhibition; assay type: cell-based; conditions: Homo sapiens, K562, 72 h, MTT, 72 hours incubation, K562 cells; read-out: GI50 K562
In short: as §1

[3] = system: HT1080 (human fibrosarcoma cells); assay: MTT cancer cell growth inhibition; assay type: cell-based; conditions: Homo sapiens, HT-1080, 72 h, MTT, 72 hours incubation; read-out: GI50 HT1
In short: as §1

[4] = system: N-87 (human gastric cancer cells); assay: MTT cancer cell growth inhibition; assay type: cell-based; conditions: Homo sapiens, 72 h, MTT, 72 hours incubation, N-87 cells; read-out: GI50 N-87
In short: as §1

[5] = system: H1975 (non-small cell lung adenocarcinoma); assay: MTT cancer cell growth inhibition; assay type: cell-based; conditions: Homo sapiens, NCI-H1975, 72 h, MTT, 72 hours incubation, H1975 cells; read-out: GI50 H1975
In short: as §1

[6] = system: SGC-7901 (human gastric cancer cells); assay: MTT cancer cell growth inhibition; assay type: cell-based; conditions: Homo sapiens, SGC-7901, 72 h, MTT, 72 hours incubation, SGC-7901 cells; read-out: GI50 SGC-7901
In short: as §1

[7] = system: Hela (human cervical cancer cells); assay: MTT cancer cell growth inhibition; assay type: cell-based; conditions: Homo sapiens, HeLa, 72 h, MTT, 72 hours incubation; read-out: GI50 Hela
In short: as §1

[8] = system: KBM-5 (human chronic myelogenous leukemia); assay: MTT cancer cell growth inhibition; assay type: cell-based; conditions: Homo sapiens, KBM5, 72 h, MTT, 72 hours incubation, KBM-5 cells; read-out: GI50 KBM-5
In short: as §1

[9] = system: KBM5-T315I (human chronic myelogenous leukemia); assay: MTT cancer cell growth inhibition; assay type: cell-based; conditions: Homo sapiens, 72 h, MTT, 72 hours incubation, KBM5-T315I cells; read-out: GI50 KBM5-T315I
In short: as §1

[10] = system: HCC827 (human non-small cell lung cancer cells); assay: MTT cancer cell growth inhibition; assay type: cell-based; conditions: Homo sapiens, HCC827, 72 h, MTT, 72 hours incubation, HCC827 cells; read-out: GI50 HCC827
In short: as §1

Structure (SMILES)	IC50 (HDAC2)	IC50 HDAC7 (HDAC7)	IC50 (HDAC11)	GI50 [1]	GI50 [2]	GI50 [3]	GI50 [4]	GI50 [5]	GI50 [6]	GI50 [7]	GI50 [8]	GI50 [9]	GI50 [10]
C/C=C1\NC(=O)c2cccc(n2)CNC(=O)C[C@@H](/C=C/CCSC(C)=O)OC(=O)[C@H](Cc2ccc(O)cc2)NC1=O [Compound 18]	55 nM	no activity	107 nM	78 nM	35 nM	10800 nM	44 nM	53 nM	42 nM	370 nM	54 nM	37 nM	59 nM
C/C=C1\NC(=O)c2cccc(n2)CNC(=O)C[C@@H](/C=C/CCSC(C)=O)OC(=O)[C@H](Cc2ccccc2)NC1=O [Compound 13]	261 nM	no activity	94 nM	81 nM	25 nM	200 nM	31 nM	53 nM	42 nM	90 nM	84 nM	11 nM	29 nM
C/C=C1\NC(=O)c2nc(ccc2F)CNC(=O)C[C@@H](/C=C/CCSC(C)=O)OC(=O)[C@H](CCCCN)NC1=O [Compound 72]	331 nM	no activity	276 nM	37 nM	33 nM	60 nM	61 nM	34 nM	26 nM	40 nM	49 nM	39 nM	61 nM
